# Measured values as given in US20060099157A1, “Ether alcohols used as solvents and emulsifiers and dispersions containing said ether alcohols” (IFAC GmbH & Co. KG, priority 2002, published 2006).
# Tests used:
# [1] = Mixing of the ether alcohol solution into C12-C15-alcohol benzoate, stability of the resulting system; type: physicochemical; settings: for miscibility of the solution with C12-C15-alcohol benzoate: solution in polyethylene glycol monomethyl ether (7 EO)
# Procedure: At room temperature (25° C.), a storage time of more than 7 days was determined without resulting in flocculation or phase separation.
# (§1) Salicylic acid was dissolved at room temperature in polyethylene glycol monomethyl ether (7 EO). A solution was accessible which comprised more than 10% by weight of salicylic acid in the acid form. The solution could be introduced in any fractions into C12-C15-alcohol benzoate without resulting in precipitation of the salicylic acid.
# [2] = Solution in polyethylene glycol monomethyl ether (7 EO); type: physicochemical; settings: dissolved in polyethylene glycol monomethyl ether (7 EO), room temperature, based on the total solution
# From the text: A solution was accessible which, based on the total solution, comprised 60% by weight of the light protection agent.
# The light protection agent 2-hydroxy-4-methoxybenzophenone (benzophenone-3) could be dissolved at room temperature in polyethylene glycol monomethyl ether (7 EO), the fraction of light protection agent in the solution being more than 30% by weight.
# 2-Hydroxy-4-methoxybenzophenone-5-sulfonic acid could be dissolved in polyethylene glycol monomethyl ether (7 EO), the resulting solution comprising more than 10% by weight of the light protection agent. The per se water-soluble light protection agent could be introduced into an oil phase as polyethylene glycol monomethyl ether (7 EO) solution so that it could be used in this formulation as oil-soluble light protection filter.
# as §1
# [3] = cited from earlier work
Compound,"storage time without flocculation or phase separation ([1]; 60% strength solution in C12-C15-alcohol benzoate, room temperature (25° C.))",miscibility of the solution with C12-C15-alcohol benzoate [1],fraction of the compound in the accessible solution [2],fraction of light protection agent in solutions hitherto accessible [3]
"CCCCC(CC)COC(=O)c1ccc(Nc2nc(Nc3ccc(C(=O)OCC(CC)CCCC)cc3)nc(Nc3ccc(C(=O)OCC(CC)CCCC)cc3)n2)cc1 (centres unmarked) [2,4,6-trianilino-p-(carbo-2′-ethylhexyl-1′-oxy)-1,3,5-triazine]",more than 7 days,any mixing ratios,60 % by weight,
COc1cc(O)c(C(=O)c2ccccc2)cc1S(=O)(=O)O [2-Hydroxy-4-methoxybenzophenone-5-sulfonic acid],,,more than 10 % by weight,
COc1ccc(C(=O)c2ccccc2)c(O)c1 [2-hydroxy-4-methoxybenzophenone],,,more than 30 % by weight,at most 20 % by weight
"O=C(O)c1ccccc1O [Salicylic acid, reference compound]",,any fractions,more than 10 % by weight,
